Assay results: ChEMBL document CHEMBL1201862, “PubChem BioAssay data set” (2004)
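How tested: cells in 96-well plates exposed to compound for 48 hours at five concentrations. The concentration for 50% growth inhibition is given as GI50.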 The source made the active and inactive calls. No stated cut-off is given here; in the data, active = GI50 up to about 1.1 µM and inactive = higher.

How the values were obtained:
Experiment in all cases: DTP human tumour cell line panel, 48 h
786-0 = system: 786-0
BT-549 = system: BT-549
HL-60 = system: HL-60
HT-29 = system: HT-29
K562 = system: K562
LOX IMVI = system: LOX IMVI
M14 = system: M14
MDA-MB-435 = system: MDA-MB-435
NCI-H23 = system: NCI-H23
PC-3 = system: PC-3
RPMI-8226 = system: RPMI-8226
SK-MEL-28 = system: SK-MEL-28
SK-OV-3 = system: SK-OV-3
SNB-75 = system: SNB-75
SR = system: SR
TK-10 = system: TK-10
UACC-257 = system: UACC-257
HCC 2998 = system: HCC 2998
KM12 = system: KM12
SW-620 = system: SW-620

Row | SMILES | GI50 (786-0) | GI50 (BT-549) | GI50 (HL-60) | GI50 (HT-29) | GI50 (K562) | GI50 (LOX IMVI) | GI50 (M14) | GI50 (MDA-MB-435) | GI50 (NCI-H23) | GI50 (PC-3) | GI50 (RPMI-8226) | GI50 (SK-MEL-28) | GI50 (SK-OV-3) | GI50 (SNB-75) | GI50 (SR) | GI50 (TK-10) | GI50 (UACC-257) | GI50 (HCC 2998) | GI50 (KM12) | GI50 (SW-620)
1 | CN1CN(c2ccccc2)C2(CCN(Cc3nc4ccccc4s3)CC2)C1=O | 17.2 µM (inactive) | 16.1 µM (inactive) | 11.4 µM (inactive) | 17 µM (inactive) | 13.8 µM (inactive) | 17.3 µM (inactive) | 13.5 µM (inactive) | 17.8 µM (inactive) | 18.1 µM (inactive) | 14.2 µM (inactive) | 16 µM (inactive) | 17.3 µM (inactive) | 22.2 µM (inactive) | 16.7 µM (inactive) | 14.8 µM (inactive) | 16.3 µM (inactive) | 16.6 µM (inactive) | – | – | –
2 | COc1ccc(C2C3=C(N=C4SC(C(C)=O)=C(C)N42)c2ccccc2CC3)cc1 (stereo not drawn) | > 100 µM (inactive) | 81.8 µM (inactive) | 10.1 µM (inactive) | 6.52 µM (inactive) | – | 63.8 µM (inactive) | > 100 µM (inactive) | > 100 µM (inactive) | 80 µM (inactive) | > 100 µM (inactive) | 4.91 µM (inactive) | > 100 µM (inactive) | > 100 µM (inactive) | > 100 µM (inactive) | – | – | 73.3 µM (inactive) | 42.4 µM (inactive) | 38.6 µM (inactive) | > 100 µM (inactive)
3 | N#Cc1cc(N(CCCl)CCCl)c([N+](=O)[O-])cc1[N+](=O)[O-] | 81.1 µM (inactive) | > 100 µM (inactive) | 22.3 µM (inactive) | > 100 µM (inactive) | > 100 µM (inactive) | 98.2 µM (inactive) | > 100 µM (inactive) | > 100 µM (inactive) | > 100 µM (inactive) | > 100 µM (inactive) | 38.2 µM (inactive) | > 100 µM (inactive) | > 100 µM (inactive) | – | 2.89 µM (inactive) | > 100 µM (inactive) | > 100 µM (inactive) | – | > 100 µM (inactive) | > 100 µM (inactive)
4 | Oc1ccc2oc3c(O)c4ccccc4cc3c2c1 | 5.93 µM (inactive) | 5.61 µM (inactive) | 2.28 µM (inactive) | 17.5 µM (inactive) | 0.0632 µM (active) | 4.08 µM (inactive) | 3.49 µM (inactive) | 0.948 µM (active) | 10.6 µM (inactive) | 4.06 µM (inactive) | 1.31 µM (inactive) | 7.24 µM (inactive) | 16.2 µM (inactive) | – | 1.72 µM (inactive) | 4.75 µM (inactive) | 52 µM (inactive) | – | 2.22 µM (inactive) | 0.69 µM (active)
5 | COC(=O)c1cccc2c1Oc1ccccc1S2 | 42.9 µM (inactive) | 60.3 µM (inactive) | 8.18 µM (inactive) | 25.9 µM (inactive) | 57.9 µM (inactive) | > 100 µM (inactive) | > 100 µM (inactive) | > 100 µM (inactive) | – | 63.2 µM (inactive) | 61.1 µM (inactive) | 96.8 µM (inactive) | > 100 µM (inactive) | 24.1 µM (inactive) | > 100 µM (inactive) | > 100 µM (inactive) | > 100 µM (inactive) | – | 12 µM (inactive) | 59.6 µM (inactive)
6 | Cc1ccc(C(=O)OCC(C)C)cc1/N=N/N(C)C | > 81.5 µM (inactive) | 79.6 µM (inactive) | 34.2 µM (inactive) | 16.1 µM (inactive) | > 100 µM (inactive) | 31.1 µM (inactive) | 67 µM (inactive) | 95.9 µM (inactive) | 34.8 µM (inactive) | 48.4 µM (inactive) | 77.6 µM (inactive) | > 71 µM (inactive) | > 100 µM (inactive) | – | 70.5 µM (inactive) | > 100 µM (inactive) | 26 µM (inactive) | > 100 µM (inactive) | 38.8 µM (inactive) | > 100 µM (inactive)
7 | c1ccc2c(c1)Nc1nc3nonc3nc1N2 | > 100 µM (inactive) | > 100 µM (inactive) | > 100 µM (inactive) | > 100 µM (inactive) | > 100 µM (inactive) | > 100 µM (inactive) | > 100 µM (inactive) | > 100 µM (inactive) | > 100 µM (inactive) | > 100 µM (inactive) | > 100 µM (inactive) | > 100 µM (inactive) | > 100 µM (inactive) | – | > 100 µM (inactive) | > 100 µM (inactive) | > 100 µM (inactive) | > 100 µM (inactive) | > 100 µM (inactive) | > 100 µM (inactive)
8 | O=c1oc2ccc3ccccc3c2cc1-c1nnc(-c2ccc([N+](=O)[O-])cc2)[nH]1 | 41.1 µM (inactive) | 21.3 µM (inactive) | > 100 µM (inactive) | > 100 µM (inactive) | > 100 µM (inactive) | 38.8 µM (inactive) | > 100 µM (inactive) | > 100 µM (inactive) | 17.7 µM (inactive) | > 100 µM (inactive) | > 100 µM (inactive) | > 100 µM (inactive) | 23.6 µM (inactive) | – | > 100 µM (inactive) | – | > 100 µM (inactive) | > 100 µM (inactive) | > 100 µM (inactive) | > 100 µM (inactive)
9 | CCOC1NC(/N=C/c2ccc(OC)cc2)=C(C#N)C1C#N (stereo not drawn) | > 100 µM (inactive) | 19.9 µM (inactive) | 37.5 µM (inactive) | > 100 µM (inactive) | 31 µM (inactive) | 44.6 µM (inactive) | > 100 µM (inactive) | 40.6 µM (inactive) | 46 µM (inactive) | 46 µM (inactive) | 46.7 µM (inactive) | > 100 µM (inactive) | 80.4 µM (inactive) | – | 30 µM (inactive) | > 100 µM (inactive) | 65.5 µM (inactive) | > 100 µM (inactive) | 64.6 µM (inactive) | 50.9 µM (inactive)
10 | N#Cc1c(N)[nH]c(=S)c(C#N)c1-c1cccc(Cl)c1 | 18.6 µM (inactive) | 39.5 µM (inactive) | 23.2 µM (inactive) | 34.2 µM (inactive) | 26.2 µM (inactive) | 39.9 µM (inactive) | 36.5 µM (inactive) | 21.4 µM (inactive) | 71.9 µM (inactive) | 21.8 µM (inactive) | 23.8 µM (inactive) | 39.6 µM (inactive) | – | – | 18.6 µM (inactive) | 65.2 µM (inactive) | 36.3 µM (inactive) | 15.6 µM (inactive) | 43.3 µM (inactive) | 24.4 µM (inactive)
11 | Cn1c(=S)c2nc(SCCN3C(=O)c4ccccc4C3=O)[nH]c2n(C)c1=O | > 100 µM (inactive) | > 100 µM (inactive) | > 100 µM (inactive) | > 100 µM (inactive) | > 100 µM (inactive) | > 100 µM (inactive) | > 100 µM (inactive) | > 100 µM (inactive) | > 100 µM (inactive) | > 100 µM (inactive) | 25.5 µM (inactive) | > 100 µM (inactive) | > 100 µM (inactive) | > 100 µM (inactive) | 3.75 µM (inactive) | > 100 µM (inactive) | > 100 µM (inactive) | – | > 100 µM (inactive) | > 100 µM (inactive)
12 | Cc1ccc2c(C(=O)c3c(C)n(CCN4CCOCC4)c4ccccc34)cccc2c1 | 13.8 µM (inactive) | 14 µM (inactive) | 2.57 µM (inactive) | 11.2 µM (inactive) | 1.36 µM (inactive) | 12.9 µM (inactive) | 16.3 µM (inactive) | 2.29 µM (inactive) | 14.8 µM (inactive) | 11.9 µM (inactive) | 0.0592 µM (active) | 1.36 µM (inactive) | 12.8 µM (inactive) | – | 6.43 µM (inactive) | 23.7 µM (inactive) | 16.3 µM (inactive) | – | 16.3 µM (inactive) | 0.685 µM (active)
13 | CCOC(=O)c1cc([N+](=O)[O-])c(Sc2ncnc3nc[nH]c23)c([N+](=O)[O-])c1 | 2.79 µM (inactive) | 6.32 µM (inactive) | 4.19 µM (inactive) | 3.06 µM (inactive) | 0.53 µM (active) | 0.378 µM (active) | 2.31 µM (inactive) | 2.47 µM (inactive) | 7.13 µM (inactive) | 9.82 µM (inactive) | 0.865 µM (active) | 14.3 µM (inactive) | 0.308 µM (active) | – | 3.24 µM (inactive) | 1.09 µM (active) | 7.28 µM (inactive) | 17.8 µM (inactive) | 9.2 µM (inactive) | 2.18 µM (inactive)
14 | Cn1c2c(c3c(=O)[nH]ncc31)CCCc1ccccc1-2 | 27.8 µM (inactive) | 31.2 µM (inactive) | 0.0817 µM (active) | 28.4 µM (inactive) | 11.3 µM (inactive) | 21.6 µM (inactive) | 39.3 µM (inactive) | 20.9 µM (inactive) | 37.7 µM (inactive) | 26.1 µM (inactive) | 17.4 µM (inactive) | – | 25.7 µM (inactive) | 23.6 µM (inactive) | 0.0993 µM (active) | 28.7 µM (inactive) | 34.1 µM (inactive) | – | 37.3 µM (inactive) | 34.3 µM (inactive)
15 | CC1SC2(CCCCC2)N(NC(=O)CSc2nc3ccc(Cl)cc3c(=O)n2-c2ccccc2)C1=O (stereo not drawn) | 18.2 µM (inactive) | 20.2 µM (inactive) | 23.6 µM (inactive) | 16.6 µM (inactive) | 19.5 µM (inactive) | 19.5 µM (inactive) | 20 µM (inactive) | 23.4 µM (inactive) | 23.2 µM (inactive) | 23.2 µM (inactive) | – | 32.6 µM (inactive) | 33.3 µM (inactive) | 20.7 µM (inactive) | – | 47.1 µM (inactive) | 22.8 µM (inactive) | 20 µM (inactive) | 30.1 µM (inactive) | 27.9 µM (inactive)
